Converted amounts (≈) assume the structure as drawn. Positions of bridges follow the written chain, without caps; N, C: chain ends. Non-standard residues stand in square brackets, D forms with d. Residues, ends and D or L forms follow the SMILES beside them. *: point of attachment. Tle = CC(C)(C)[C@H](N)C(=O)O; dNva = CCC[C@@H](N)C(=O)O; Octanoyl = CCCCCCCC(=O)*; Orn = NCCC[C@H](N)C(=O)O; Dab = NCC[C@H](N)C(=O)O; X33 = Cc1cccc(C(=O)*)c1; Abu = CC[C@H](N)C(=O)O; Dap = NC[C@H](N)C(=O)O
Tests used:
Enterobacter cloacae = test system: Enterobacter cloacae
Protocol: (§1) MICs of the lipopeptides (trifluoroacetic acid salt, TFA) were determined by broth microdilution in cation-adjusted Mueller-Hinton broth (CAMHB) (Oxoid Australia, Thebarton, SA, Australia) according to Clinical and Laboratory Standards Institute standards (Clinical and Laboratory Standards Institute. Performance standards for antimicrobial susceptibility testing; eighteenth informational supplement M100-S18. Wayne, Pa., 2008). Polymyxin B (sulphate) was employed as control. […]

Pseudomonas aeruginosa = test system: Pseudomonas aeruginosa
Protocol: as §1

Acinetobacter baumannii = test system: Acinetobacter baumannii
Protocol: as §1

Row | SMILES | Minimum inhibitory concentration, Ec FADDI-EC001 (Enterobacter cloacae) | Minimum inhibitory concentration, Ec FADDI-EC003 (Enterobacter cloacae) | Minimum inhibitory concentration, Ec FADDI-EC006 (Enterobacter cloacae) | Minimum inhibitory concentration, Pa ATCC 27853 (Pseudomonas aeruginosa) | Minimum inhibitory concentration, Pa FADDI-PA022 (Pseudomonas aeruginosa) | Minimum inhibitory concentration, Pa FADDI-PA025 (Pseudomonas aeruginosa) | Minimum inhibitory concentration, Ab A ATCC 17978 (Acinetobacter baumannii) | Minimum inhibitory concentration, Ab ATCC 19606 (Acinetobacter baumannii) | Minimum inhibitory concentration, Ab FADDI-AB034 (Acinetobacter baumannii)
1 | CCCCCCCC(=O)N[C@@H](CCN)C(=O)N[C@H](C(=O)N[C@@H](CN)C(=O)N[C@H]1CCNC(=O)[C@H]([C@@H](C)O)NC(=O)[C@H](CCN)NC(=O)[C@H](CCN)NC(=O)[C@H](CC)NC(=O)[C@@H](CCC)NC(=O)[C@H](CCN)NC1=O)[C@@H](C)O [Compound 69] (Octanoyl-[Dab]T[Dap][Dab][Dab][dNva][Abu][Dab][Dab]T; lactam 4-C) | 0.25 µg/mL (≈ 0.227 µM) | <0.125 µg/mL | <0.125 µg/mL | 0.5 µg/mL (≈ 0.455 µM) | 0.5 µg/mL (≈ 0.455 µM) | 8 µg/mL (≈ 7.28 µM) | 0.5 µg/mL (≈ 0.455 µM) | 0.5 µg/mL (≈ 0.455 µM) | 0.25 µg/mL (≈ 0.227 µM)
2 | CCCCCCCC(=O)N[C@@H](CCN)C(=O)N[C@H](C(=O)N[C@@H](CN)C(=O)N[C@H]1CCNC(=O)[C@H]([C@@H](C)O)NC(=O)[C@H](CN)NC(=O)[C@H](CCN)NC(=O)[C@H]([C@@H](C)O)NC(=O)[C@@H](CC(C)C)NC(=O)[C@H](CCN)NC1=O)[C@@H](C)O [Compound 50] (Octanoyl-[Dab]T[Dap][Dab][Dab][dL]T[Dab][Dap]T; lactam 4-C) | <0.125 µg/mL | <0.125 µg/mL | <0.125 µg/mL | 1 µg/mL (≈ 0.897 µM) | 0.5 µg/mL (≈ 0.448 µM) | >32 µg/mL | 0.5 µg/mL (≈ 0.448 µM) | 0.5 µg/mL (≈ 0.448 µM) | 1 µg/mL (≈ 0.897 µM)
3 | CC[C@@H]1NC(=O)[C@@H](CC(C)C)NC(=O)[C@H](CCN)NC(=O)[C@@H](NC(=O)[C@H](CN)NC(=O)[C@@H](NC(=O)[C@H](CCN)NC(=O)c2cccc(C)c2)[C@@H](C)O)CCNC(=O)[C@H]([C@@H](C)O)NC(=O)[C@H](CCN)NC(=O)[C@H](CCN)NC1=O [Compound 87] (X33-[Dab]T[Dap][Dab][Dab][dL][Abu][Dab][Dab]T; lactam 4-C) | 2 µg/mL (≈ 1.81 µM) | 1 µg/mL (≈ 0.905 µM) | 2 µg/mL (≈ 1.81 µM) | 0.5 µg/mL (≈ 0.452 µM) | 1 µg/mL (≈ 0.905 µM) | 2 µg/mL (≈ 1.81 µM) | 1 µg/mL (≈ 0.905 µM) | 2 µg/mL (≈ 1.81 µM) | 2 µg/mL (≈ 1.81 µM)
4 | CCCCCCCC(=O)N[C@@H](CCN)C(=O)N[C@H](C(=O)N[C@@H](CN)C(=O)N[C@H]1CCNC(=O)[C@H]([C@@H](C)O)NC(=O)[C@H](CCN)NC(=O)[C@H](CCN)NC(=O)[C@H]([C@@H](C)O)NC(=O)[C@@H](CC(C)C)NC(=O)[C@H](CCCN)NC1=O)[C@@H](C)O [Compound 55] (Octanoyl-[Dab]T[Dap][Dab][Orn][dL]T[Dab][Dab]T; lactam 4-C) | 1 µg/mL (≈ 0.875 µM) | 4 µg/mL (≈ 3.5 µM) | >32 µg/mL | >32 µg/mL | >32 µg/mL | >32 µg/mL | >32 µg/mL | >32 µg/mL | >32 µg/mL
5 | CCCCCCCC(=O)N[C@@H](CCN)C(=O)N[C@H](C(=O)N[C@@H](CN)C(=O)N[C@H]1CCNC(=O)[C@H]([C@@H](C)O)NC(=O)[C@H](CCN)NC(=O)[C@H](CCN)NC(=O)[C@H](C(C)(C)C)NC(=O)[C@@H](CC(C)C)NC(=O)[C@H](CCN)NC1=O)[C@@H](C)O [Compound 47] (Octanoyl-[Dab]T[Dap][Dab][Dab][dL][Tle][Dab][Dab]T; lactam 4-C) | 0.5 µg/mL (≈ 0.438 µM) | 0.5 µg/mL (≈ 0.438 µM) | 0.25 µg/mL (≈ 0.219 µM) | 1 µg/mL (≈ 0.876 µM) | 1 µg/mL (≈ 0.876 µM) | 8 µg/mL (≈ 7.01 µM) | 2 µg/mL (≈ 1.75 µM) | 8 µg/mL (≈ 7.01 µM) | 1 µg/mL (≈ 0.876 µM)

Source: patent USRE48335E1, “Polymyxin derivatives as antimicrobial compounds” (priority 2014, dated 2020)
